Experimental data taken from patent US20180171411A1, “GFRalpha1 AS A BIOMARKER FOR CISPLATIN-INDUCED CHEMORESISTANCE AND METASTASIS” (THE BOARD OF REGENTS OF THE UNIVERSITY OF TEXAS SYSTEM, priority 2015, published 2018).

Legend:
MG-63 cells = assay: Acridine orange staining of acidic vesicular organelles (AVOs); type: cell-based, human; settings: control MG-63 cells; cisplatin 20 μM, 24 hr
Description: FIG. 3. GFRα1-induced autophagy enhances the chemoresistance of osteosarcoma cells induced by cisplatin. (a) Control and GFRα1-deficient MG-63 cells were transiently transfected with a mRFP-GFP tandem fluorescent-tagged LC3 (mRFP-GFP-LC3) vector and then treated with cisplatin (20μM) for 24 hr. Left, representative images of RFP-LC3 and GFP-LC3 puncta. Scale bar, 20 μm. Right, quantitative analysis of the number of yellow puncta and the number of RFP-LC3 puncta in the combined images. The values are represented as a mean±s.d.m. (n=3). ** denotes p<0.05 by t-test. (b) Control and GFRα1-deficient MG-63 cells were treated with cisplatin (20 μM) for 24 hr and then stained with acridine orange. […] Bottom, quantitative analysis of the number of AVOs. […] (c) Control and GFRα1-deficient MG-63 cells were treated with cisplatin (20 μM) for 24 hr and then analyzed by TEM. Top, representative images of autophagic vacuoles (yellow arrows) detected after cisplatin treatment in control MG-63 cells. […] Bottom, quantitative analysis of the number of autophagic vacuoles. […] (e) Quantitative analysis of the number of yellow puncta and the number of RFP-LC3 puncta in control and GFRα1-overexpressing MG-63 cells. […] Bottom, quantitative analysis of the number of AVOs. […] (h) Control and GFRα1-overexpressing MG-63 cells were treated with cisplatin (20 μM) for 24 hr and then analyzed by TEM. […]

[1] = tested on: GDNF mRNA in MG-63 and U-2 OS cells; assay: PCR of GDNF mRNA expression after cisplatin; type: cell-based, human; settings: 10 and 20 μM of cisplatin, 24 h
Description: FIG. 7. GFRα1-mediated chemoresistance of osteosarcoma cells is independent of GDNF. (a) Quantitative real-time PCR of GDNF mRNA expression after cisplatin treatment. MG-63 and U-2 OS cells were treated with different concentrations of cisplatin for 24 h. (b-d) Cell viability was measured using the WST-1 assay. The values are represented as a mean±s.d.m. (n=3). (b) MG-63 cells were treated with PBS or GDNF (50 ng/ml) for 24 h. (c) Control and GFRα1-overexpressing cells were cultured and treated with PBS or GDNF for 24 h. (d) Control and GFRα1-overexpressing cells were treated and cultured with PBS only, Cisplatin, or Cisplatin+GDNF (50 ng/ml) for 24 h, respectively. […] Representative images of RFP-LC3 and GFP-LC3 puncta. Scale bar, 20 μm. Control and GFRα1-overexpressing MG-63 cells were transiently transfected with an RFP-GFP tandem fluorescent-tagged LC3 (RFP-GFP-LC3) and then treated with PBS (top two panels) or cisplatin (20 μM; bottom two panes) for 24 h. […] (f) Quantitative analysis of the number of yellow puncta and the number of RFP-LC3 puncta in the combined images of Control and GFRα1-overexpressing MG-63 cells treated with GDNF. […]
Semi-quantitative RT-PCR. […]

N.N.[Cl][Pt][Cl] [cisplatin, Cis-Diamineplatinum(II) dichloride]
AVO-positive cells (MG-63 cells): significantly increased | GDNF mRNA expression [1]: increase
